Values of other authors, collected in patent US20230310317A1, “SOL-GEL COMPOSITION” (THE UNIVERSITY OF QUEENSLAND, priority 2020, published 2023).

Conditions: aqueous media e.g. gel-based systems

Solubility in aqueous media: practically insoluble
Structure (SMILES): C[C@@H]1C[C@H]2[C@@H]3CCC4=CC(=O)C=C[C@]4(C)[C@@]3(Cl)[C@@H](O)C[C@]2(C)[C@@]1(OC(=O)c1ccco1)C(=O)CCl [MF, mometasone furoate]
